Legend:
Test in all cases: relative viability (nuclei count vs DMSO), 5 days (fraction); higher = more cells survive
ChaGo-K-1 = system: ChaGo-K-1
How it was run: (§1)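 Cells from lung cancer lines were seeded into 1536-well plates and, one day later, dosed by pin tool. Treatments were either a single drug or a fixed dose of an anchor drug with five library-drug doses (not always all listed) in √10 steps. After 5 days, nuclei were stained in a one-step fixation (final 0.05% Triton X-100, 1% formaldehyde, 1 ug/ml Hoechst) and counted on 4× images, and relative viability is the treated-to-vehicle nuclei ratio, as the median of duplicate plates.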

SW 1573 = system: SW 1573
How it was run: as §1

NCI-H1437 = system: NCI-H1437
How it was run: as §1

SK-MES-1 = system: SK-MES-1
How it was run: as §1

ABC-1 = system: ABC-1
How it was run: as §1

NCI-H1651 = system: NCI-H1651
How it was run: as §1

COR-L23 = system: COR-L23
How it was run: as §1

NCI-H1648 = system: NCI-H1648
How it was run: as §1

A549 = system: A549
How it was run: as §1

NCI-H1703 = system: NCI-H1703
How it was run: as §1

## CCN(CC)CCCCNc1ncc2cc(-c3cc(OC)cc(OC)c3)c(NC(=O)NC(C)(C)C)nc2n1 + Nc1ncn([C@H]2C[C@H](O)[C@@H](CO)O2)c(=O)n1 [Decitabine] (partner 2 µM)
ChaGo-K-1; first compound 0.01 µM
  relative viability: 0.563
ChaGo-K-1; first compound 0.03162 µM
  relative viability: 0.516
ChaGo-K-1; first compound 0.1 µM
  relative viability: 0.54
ChaGo-K-1; first compound 0.3162 µM
  relative viability: 0.539
ChaGo-K-1; first compound 1 µM
  relative viability: 0.51
SW 1573; first compound 0.01 µM
  relative viability: 0.441
SW 1573; first compound 0.03162 µM
  relative viability: 0.528
SW 1573; first compound 0.1 µM
  relative viability: 0.583
SW 1573; first compound 0.3162 µM
  relative viability: 0.591
SW 1573; first compound 1 µM
  relative viability: 0.435
NCI-H1437; first compound 0.01 µM
  relative viability: 0.599
NCI-H1437; first compound 0.03162 µM
  relative viability: 0.541
NCI-H1437; first compound 0.1 µM
  relative viability: 0.592
NCI-H1437; first compound 0.3162 µM
  relative viability: 0.58
NCI-H1437; first compound 1 µM
  relative viability: 0.578
SK-MES-1; first compound 0.01 µM
  relative viability: 0.435
SK-MES-1; first compound 0.03162 µM
  relative viability: 0.425
SK-MES-1; first compound 0.1 µM
  relative viability: 0.366
SK-MES-1; first compound 0.3162 µM
  relative viability: 0.318
SK-MES-1; first compound 1 µM
  relative viability: 0.356
ABC-1; first compound 0.03162 µM
  relative viability: 1.17
ABC-1; first compound 0.1 µM
  relative viability: 1.32
ABC-1; first compound 0.3162 µM
  relative viability: 1.06
ABC-1; first compound 1 µM
  relative viability: 1.05
NCI-H1651; first compound 0.01 µM
  relative viability: 0.625
NCI-H1651; first compound 0.03162 µM
  relative viability: 0.68
NCI-H1651; first compound 0.1 µM
  relative viability: 0.63
NCI-H1651; first compound 0.3162 µM
  relative viability: 0.75
NCI-H1651; first compound 1 µM
  relative viability: 0.589
COR-L23; first compound 0.01 µM
  relative viability: 0.4
COR-L23; first compound 0.03162 µM
  relative viability: 0.445
COR-L23; first compound 0.1 µM
  relative viability: 0.461
COR-L23; first compound 0.3162 µM
  relative viability: 0.442
COR-L23; first compound 1 µM
  relative viability: 0.43
NCI-H1648; first compound 0.01 µM
  relative viability: 0.407
NCI-H1648; first compound 0.03162 µM
  relative viability: 0.565
NCI-H1648; first compound 0.1 µM
  relative viability: 0.499
NCI-H1648; first compound 0.3162 µM
  relative viability: 0.417
NCI-H1648; first compound 1 µM
  relative viability: 0.383
A549; first compound 0.01 µM
  relative viability: 0.27
A549; first compound 0.03162 µM
  relative viability: 0.27
A549; first compound 0.1 µM
  relative viability: 0.312
A549; first compound 0.3162 µM
  relative viability: 0.212
A549; first compound 1 µM
  relative viability: 0.288

## COc1nc(C)cnc1NS(=O)(=O)c1cccnc1-c1ccc(-c2nnco2)cc1 [Zibotentan] + NC(=O)Nc1cc(-c2cccc(F)c2)sc1C(=O)N[C@H]1CCCNC1 [AZD7762] (partner 0.2 µM)
ChaGo-K-1; first compound 0.08 µM
  relative viability: 0.912
ChaGo-K-1; first compound 0.253 µM
  relative viability: 0.842
ChaGo-K-1; first compound 0.8 µM
  relative viability: 0.756
ChaGo-K-1; first compound 2.53 µM
  relative viability: 0.927
NCI-H1437; first compound 0.08 µM
  relative viability: 1.14
NCI-H1437; first compound 0.253 µM
  relative viability: 0.897
NCI-H1437; first compound 0.8 µM
  relative viability: 1.05
NCI-H1437; first compound 2.53 µM
  relative viability: 1.15
ABC-1; first compound 0.08 µM
  relative viability: 0.711
ABC-1; first compound 0.253 µM
  relative viability: 0.86
ABC-1; first compound 0.8 µM
  relative viability: 0.765
ABC-1; first compound 2.53 µM
  relative viability: 0.843
NCI-H1651; first compound 0.08 µM
  relative viability: 0.448
NCI-H1651; first compound 0.253 µM
  relative viability: 0.389
NCI-H1651; first compound 0.8 µM
  relative viability: 0.446
NCI-H1651; first compound 2.53 µM
  relative viability: 0.419
NCI-H1703; first compound 0.08 µM
  relative viability: 0.139
NCI-H1703; first compound 0.253 µM
  relative viability: 0.114
NCI-H1703; first compound 0.8 µM
  relative viability: 0.108
NCI-H1703; first compound 2.53 µM
  relative viability: 0.121
NCI-H1648; first compound 0.08 µM
  relative viability: 0.637
NCI-H1648; first compound 0.253 µM
  relative viability: 0.596
NCI-H1648; first compound 0.8 µM
  relative viability: 0.596
NCI-H1648; first compound 2.53 µM
  relative viability: 0.63

## O=c1cc(-c2cccc3c2Sc2ccccc2S3)oc(N2CCOCC2)c1 + NC(=O)Nc1cc(-c2cccc(F)c2)sc1C(=O)N[C@H]1CCCNC1 [AZD7762] (partner 0.2 µM)
ChaGo-K-1; first compound 0.08 µM
  relative viability: 0.827
ChaGo-K-1; first compound 0.253 µM
  relative viability: 0.942
ChaGo-K-1; first compound 0.8 µM
  relative viability: 0.779
ChaGo-K-1; first compound 2.53 µM
  relative viability: 0.889
ChaGo-K-1; first compound 8 µM
  relative viability: 0.975
NCI-H1437; first compound 0.08 µM
  relative viability: 1.07
NCI-H1437; first compound 0.253 µM
  relative viability: 1.23
NCI-H1437; first compound 0.8 µM
  relative viability: 1.2
NCI-H1437; first compound 2.53 µM
  relative viability: 1.17
NCI-H1437; first compound 8 µM
  relative viability: 1.23
ABC-1; first compound 0.08 µM
  relative viability: 0.738
ABC-1; first compound 0.253 µM
  relative viability: 0.7
ABC-1; first compound 0.8 µM
  relative viability: 0.714
ABC-1; first compound 2.53 µM
  relative viability: 1
ABC-1; first compound 8 µM
  relative viability: 0.875
NCI-H1651; first compound 0.08 µM
  relative viability: 0.452
NCI-H1651; first compound 0.253 µM
  relative viability: 0.538
NCI-H1651; first compound 0.8 µM
  relative viability: 0.44
NCI-H1651; first compound 2.53 µM
  relative viability: 0.389
NCI-H1651; first compound 8 µM
  relative viability: 0.425
NCI-H1703; first compound 0.253 µM
  relative viability: 0.13
NCI-H1703; first compound 2.53 µM
  relative viability: 0.098
NCI-H1703; first compound 8 µM
  relative viability: 0.116
NCI-H1648; first compound 0.253 µM
  relative viability: 0.694
NCI-H1648; first compound 0.8 µM
  relative viability: 0.734
NCI-H1648; first compound 8 µM
  relative viability: 0.69
